# Experimental data reported in patent US20260137809A1, “GENE THERAPY VECTORS FOR TREATMENT OF CANCER” (Siren Biotechnology, Inc., priority 2022, published 2026).
# Legend:
# X^on induction system = assay: Dose studies with various inducer molecules, AAV-CAG-X^on-eGFP fluorescence (Example 3); format: cell-based; details: cells transduced with 1e^6 vg/cell AAV-CAG-X^on-eGFP; inducer added after 24 hours at 4 concentrations
# Experimental: Briefly, cells were seeded in black 96-well plates for 24 hours and transduced with 1e^6 vg/cell AAV-CAG-X^on-eGFP as described in Example 1. After 24 hours, each inducer was added directly into the cell media at 4 different concentrations each. Cells expressing the eGFP payload were visualized by fluorescent live imaging (20× magnification) after induction with branaplam (FIG. 20A) or RG7800 (FIG. 20B). Cells were counter-stained with […] Hoechst to identify nuclei and determine total cell counts for normalization. The number of eGFP-positive cells as well as the green fluorescence intensity was measured for each well and each condition up to 9 hours post-induction to determine the kinetics of the payload expression post-induction (FIGS. 20C-20H).
# [1] = system: X^on splicing control element; assay: Kinetics of eGFP induction with branaplam and RG7800-HCl, live cell imaging (Example 4); format: cell-based; details: for induced eGFP expression level compared with the constitutive construct: AAV-CAG-X^on-eGFP versus constitutive AAV-CAG-eGFP, inducer at optimal concentrations; for course of eGFP payload expression after induction: AAV-CAG-X^on-eGFP, monitored for 14, 28 or 84 hours
# Experimental: Cells were seeded in 96-well plates for 24 hours and transduced with AAV-CAG-X^on-eGFP or constitutive AAV-CAG-eGFP as the positive control, and treated with or without branaplam or RG7800-HCl. Fluorescent eGFP payload expression was monitored for a total of 14 hours (FIGS. 21A-21D) or 28 hours (FIGS. 22A-22D) by live cell imaging.
# X^on splicing element = assay: Inducible AAV-GFP / AAV-eGFP expression after the inducer branaplam, live fluorescent imaging (Example 2); format: cell-based, human; details: HEK293-T cells transduced with AAV-CAG-X^on-eGFP, branaplam 125 nM
# Description: Adherent human HEK293-T cells were transduced with inducible AAV-GFP, followed by fluorescent imaging for GFP expression pre- and post-administration of an inducer molecule (e.g., branaplam). The data is seen in FIG. 17.
# Adherent human HEK293-T cells were transduced with AAV-GFP at varying dosages, followed by administration of an inducer molecule (e.g., branaplam), and monitored for GFP expression over several hours to determine initial expression kinetics at different AAV dosages in vitro. The data is seen in FIG. 19.
# In a similar set of experiments, HEK293-T cells were plated in a 96-well plate for 24 hours and transduced with a broad range of multiplicity of infection (MOI) using a constitutively-expressing payload expression construct, AAV-CAG-eGFP, to determine the necessary MOI for detectable eGFP expression prior to advancing to the inducible constructs described in Example 1. MOIs tested ranged from 3E4 to 4E6 vg/cell. Transduction efficacy was assessed by measuring the eGFP payload expression from transduced cells using a fluorescent microscopy imager (FIG. 18). Once an MOI was selected, the inducible AAV-CAG-X^on-eGFP was tested with an inducer molecule, branaplam at 125 nM, 24 hours post-transduction. […] Control cells were transduced with AAV-CAG-X^on-eGFP without the addition of an inducer. […]
# [2] = system: X^on splicing control element; assay: ON/OFF control of fLuc expression with cycles of branaplam (Example 6); format: cell-based, human; details: HEK293-T, AAV-CAG-X^on-fLuc, MOI 2.5E5 vg/cell
# Experimental: HEK293-T cells were transduced with AAV and then branaplam, and after 24 hours of induction with branaplam, supernatants were harvested and assayed for luciferase expression, and the media was replaced with fresh medium without branaplam. Supernatants for the next timepoint were then harvested after 24 hours in the condition without branaplam, and the cycle was repeated (e.g., one or two or more times; FIG. 25A). Briefly, HEK293-T cells were transduced with an MOI of 2.5E5 vg/cell of AAV-CAG-X^on-fLuc (FIG. 25B) for 24 hours, followed by addition of branaplam at 3 different concentrations at hour 24 for an additional 24 hours (“ON”). Supernatants were then harvested for the measurement of fLuc, and media was replaced with fresh media lacking branaplam (“OFF”) for 24 hours. Supernatants were harvested after 24 hours in the OFF state. fLuc luminescent signal was measured for each cycle in sample supernatants at each time point and condition described (FIG. 25C).
# [3] = system: X^on splicing control element; assay: ON/OFF control of hIFNβ expression with branaplam, ELISA of supernatants (Example 7); format: cell-based, human; details: HEK293-T, AAV-CAG-X^on-hIFNβ, MOI 2.5e^5 vg/cell
# Experimental: Briefly, HEK293-T cells were transduced with an MOI of 2.5e^5 vg/cell of AAV-CAG-X^on-hIFNβ or constitutive AAV-CAG-hIFNβ for 24 hours. 24 hours post-transduction with AAV, branaplam was added to the cell media to induce human IFNβ (hIFNβ) expression (“ON”). After 24 hours, media supernatants were harvested for payload measurement and fresh media lacking Branaplam (“OFF”). 24 hours later, media supernatants were harvested for payload detection (FIG. 25A). Amounts of hIFNβ were measured in picograms per milliliter (pg/mL) (FIG. 26A) using an ELISA kit for hIFNβ in supernatants before and after induction with branaplam, and after removal of branaplam. FIG. 26B depicts the expression of hIFNβ following transduction with AAV-CAG-X^on-hIFNβ normalized to the levels of expression obtained with the constitutive payload.
SMILES,active concentration for induction of eGFP payload expression (X^on induction system) [µM],induced eGFP expression level compared with the constitutive construct [1],course of eGFP payload expression after induction [1],"detectable GFP and eGFP expression, earliest time post-induction (X^on splicing element; 24 hours post-transduction, imaging every 30 minutes) [h]",course of GFP and eGFP signal post-induction (X^on splicing element; read up to 5 hours),fLuc expression in OFF conditions (without branaplam for 24 hours) [2],"re-induction of fLuc expression achievable and detectable, number of cycles [2]","dose of branaplam needed to mediate reliable payload expression and cycle control ([2]; 3 concentrations, 24 hours ON / 24 hours OFF) [nM]",number of repeat ON/OFF cycles on the same transduced cells [3],time to induced expression of hIFNβ after induction ([3]; ELISA of supernatant) [h],time until hIFNβ expression stopped after removal of branaplam ([3]; ELISA of supernatant) [h]
CCc1nc(C)cn2nc(-c3cc(=O)n4cc(C5CCN(C)CC5)cc(C)c4n3)cc12.Cl [RG7800-HCl],20,nearly the same levels of expression,"continued to increase over the first 12 hours, followed by a slower increase to 24 hours",–,–,–,–,–,–,–,–
CCc1nc(C)cn2nc(-c3cc(=O)n4cc(C5CCN(C)CC5)cc(C)c4n3)cc12 [RG7800],20,–,–,–,–,–,–,–,–,–,–
CC1(C)CC(Oc2ccc(-c3ccc(-c4cn[nH]c4)cc3O)nn2)CC(C)(C)N1 [branaplam],–,nearly the same levels of expression,"continued to increase over the first 12 hours, followed by a slower increase to 24 hours",3,continuing to increase up to 5 hours post-induction,reliably reduced expression of the fLuc,at least 2 full induction cycles,≥ 200,up to 2 repeat cycles,≤ 24,≤ 24
